What was measured:
[1] = test system: CYP1A2, 2A6, 2C9, 2C19, 2D6, 2E1, CYP3A4/5; set-up: method as in ref 32 = [32]; 32. Wang J. Zhao Z. Xu W. Hu X. Jin P. First Marketed Glucokinase Activator for Antidiabetic Therapy: Dorzagliatin Chin. Pharm. J. 2024 59 651 656; settings: in vitro studies; cited from earlier work
OVCAR3 xenograft tumor = assay: In vivo tumor growth, OVCAR3 subcutaneous xenograft tumor model; set-up: species or system BALB/c nude mice; settings: n = 6
Method: This study, approved by Fudan University Ethics Committee (protocol code: 201904008Z) on 26 April 2019, was conducted in compliance with AAALAC’s International Commission guidelines for laboratory animal evaluation and accreditation. A total of 36 female BALB/c nude mice (6–8 weeks old, weighing 18–20 g) were purchased from Charles River Laboratories (Pinghu, China). The OVCAR3 ovarian cancer cell line (ATCC® HTB-161™) was used to establish human xenografts. OVCAR3 cells (10 × 10^6) suspended in 0.2 mL of Matrigel were subcutaneously inoculated into the dorsal region of each mouse. Tumors were allowed to grow until reaching a volume of ~160 mm^3, typically around 30 days post-inoculation.
WX390 was prepared in Solvent-1, comprising dimethyl sulfoxide (DMSO): methylcellulose: water at a ratio of 1:1:98 (v/v/v). BYL719 and dorzagliatin were formulated in Solvent-2, consisting of Tween 80: water with 0.5% methylcellulose (MC) solution at a ratio of 0.2:99.8 (v/v). The treatment control was a combination of Solvent-1 and Solvent-2. The test compounds were administered orally as follows: WX390 at 0.2 mg/kg, BYL719 at 25 mg/kg, and dorzagliatin at 10 mg/kg, dissolved in their respective formulations. Due to ethical considerations regarding gavage volume the administration volume across all groups was standardized to 10 μL/g of body weight.
The experiment involved six treatment groups, each comprising six mice. The groups included: (i) vehicle control, (ii) WX390 (0.2 mg/kg), (iii) BYL719 (25 mg/kg), (iv) dorzagliatin (10 mg/kg), (v) WX390 (0.2 mg/kg) + dorzagliatin (10 mg/kg), and (vi) BYL719 (25 mg/kg) + dorzagliatin (10 mg/kg). All treatments were administered via oral gavage once daily for four weeks. In the combination group of PI3Ki and dorzagliatin, dorzagliatin was administered 30 min prior to PI3Ki.
Tumor dimensions were measured biweekly using a vernier caliper. Tumor volume was calculated using the formula:(1) V=0.5a×b^2 where: • a represents the longest tumor diameter. • b represents the shortest diameter.
The antitumor efficacy of each group was evaluated using TGI or T/C. TGI (%) reflects the rate of tumor growth inhibition and is calculated as follows:(2) TGI%=1−Vend−V0exp/Vend−V0control×100% where: • Vend represents mean tumor volume at the end of treatment in the group. • V0 represents mean tumor volume at the start of treatment in the group. • exp represents the treated groups. • control represents the vehicle control group.
T/C (%) is calculated using the formula:(3) T/C%=TRTV/CRTV×100% where: • TRTV is the Relative Tumor Volume of the treatment group. • CRTV is the Relative Tumor Volume of the negative control group.
The Relative Tumor Volume (RTV) is calculated based on tumor measurement results using the formula:(4) RTV=Vt/V0 where: • V0 is the mean tumor volume at the time of grouping (day 0). • Vt is the mean tumor volume at a given measurement time.
TRTV and CRTV are based on data from the same day.
At the conclusion of the experiment, tumor weights were measured, and the T/C was calculated. Tweight and Cweight represent the tumor weights of the treatment group and the vehicle control group, respectively.

[2] = based on tumor volume on day 28, vs vehicle

In the case of `CC(C)C[C@@H](C(=O)Nc1ccn(C[C@@H](O)CO)n1)N1CC(Oc2ccccc2Cl)=CC1=O` [Dorz, Dorzagliatin], the “inhibition of CYP1A2, 2A6, 2C9, 2C19, 2D6, 2E1, CYP3A4/5” value [1] is given as “does not inhibit”, the “T/C (Relative Tumor Growth Rate)” value (OVCAR3 xenograft tumor; [2]) is given as 90.81% and the “TGI (Tumor Growth Inhibition)” value (OVCAR3 xenograft tumor; [2]) is given as 10.19%. The “Tumor Volume (Day 28)” value (OVCAR3 xenograft tumor; day 28 after administration, oral once daily, Dorz 10 mg/kg, WX390 0.2 mg/kg, BYL719 25 mg/kg, vehicle 1582 mm^3) was 1437 ± 172 mm^3.

Reference: PMC12196043, “In Vivo PK-PD and Drug–Drug Interaction Study of Dorzagliatin for the Management of PI3Kα Inhibitor-Induced Hyperglycemia” (Pharmaceuticals, 2025)
